# Reference: patent US11149009B2, “Fused piperidinyl bicyclic and related compounds as modulators of C5A receptor” (InflaRx GmbH, priority 2019, dated 2021)
# Target: C5a receptor (Homo sapiens (Human), UniProt P21730)
# Assay: Calcium mobilization assay (C5a-induced, U937 cells)
# Type: cell-based
# Details: inhibition of C5a-induced calcium mobilization
# Method: U937 cells (ATCC® CRL-1593.2) were cultivated in RPMI1640 medium supplemented with 10% fetal bovine serum in a standard cell culture incubator. The day before conducting the assay, Dibutyryl-cAMP (0.5 mM working concentration) was added to cell cultures. Next day, cells were spun and resuspended in RPMI 1640 to a concentration of 40,000 cells per 50 μl. 40,000 cells were plated in one well in a 96 well poly-D-lysine coated plate for two hours to allow cells to adhere. After cell adherence, cytoplasmic calcium^++ indicator (FLIPR Calcium 6 Assay Kit, Molecular Devices) was added to each well and incubated for 75 minutes at 37° C. Test compounds were diluted using a robotic liquid handler. The tips of the robotic liquid handler were changed after each mixing step. Test compounds were added into cell cultures at various concentrations (0.01 nM to 100 μM) for 15 minutes at 37° C. The cell culture plates were then incubated at room temperature for 30 minutes before being placed into Flexstation-3 plate reader (Molecular Devices). The Flexstation-3 was programmed to add recombinant C5a protein at various concentrations (1 nM to 10 nM) to cell culture plates and to monitor the change of fluorescence intensity, which correlates with cytoplasmic calcium concentration. The assay was also performed with the presence of human or animal blood components, such as human or bovine plasma or serum.
# The half maximal inhibitory concentrations, i.e. IC50, were determined in biological assays, such as calcium mobilization assay. Using the calcium mobilization assay the following IC50 values were determined by the best dose-response curve fitting method. The curves were plotted using percentage inhibition of C5a-induced calcium mobilization versus various concentrations of compounds.
# C5a receptor, sequence (P21730 whole entry): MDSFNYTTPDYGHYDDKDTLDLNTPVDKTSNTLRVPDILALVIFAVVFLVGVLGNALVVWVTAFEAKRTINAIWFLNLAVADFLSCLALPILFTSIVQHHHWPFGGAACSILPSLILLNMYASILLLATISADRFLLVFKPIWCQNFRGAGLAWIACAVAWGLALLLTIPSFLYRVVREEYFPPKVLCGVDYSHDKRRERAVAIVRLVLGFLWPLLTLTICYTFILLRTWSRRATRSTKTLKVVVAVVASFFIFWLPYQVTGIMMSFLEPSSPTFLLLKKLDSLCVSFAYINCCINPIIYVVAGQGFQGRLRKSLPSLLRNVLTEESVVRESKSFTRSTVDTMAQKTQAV
row,Compound,IC50 [nM]
1,"Cc1cccc(F)c1C(=O)N1c2ccccc2C[C@H](C(=O)Nc2ccc(O)c(C(F)(F)F)c2)[C@@H]1c1ccc(NC2CCCC2)cc1 [INF033, (2R,3S)-2-(4-(cyclopentylamino)phenyl)-1-(2-fluoro-6-methylbenzoyl)-N-(4-hydroxy-3-(trifluoromethyl)phenyl)-1,2,3,4-tetrahydroquinoline-3-carboxamide]",< 10
2,"Cc1ccc2c(c1)C[C@H](C(=O)Nc1ccc(C)c(C(F)(F)F)c1)[C@H](c1ccc(NC3CCCC3)cc1)N2C(=O)c1c(C)cccc1F [INF023, (2R,3S)-2-(4-(cyclopentylamino)phenyl)-1-(2-fluoro-6-methylbenzoyl)-6-methyl-N-(4-methyl-3-(trifluoromethyl)phenyl)-1,2,3,4-tetrahydroquinoline-3-carboxamide]",< 10
3,"Cc1cccc(F)c1C(=O)N1c2cccc(F)c2C[C@H](C(=O)Nc2ccc(CO)c(C(F)(F)F)c2)[C@@H]1c1ccc(NC2CCCC2)cc1 [INF045, (2R,3S)-2-(4-(cyclopentylamino)phenyl)-5-fluoro-1-(2-fluoro-6-methylbenzoyl)-N-(4-(hydroxymethyl)-3-(trifluoromethyl)phenyl)-1,2,3,4-tetrahydroquinoline-3-carboxamide]",< 10
4,"COc1ccc2c(c1)C[C@H](C(=O)Nc1ccc(C)c(C(F)(F)F)c1)[C@H](c1ccc(NC3CCCC3)cc1)N2C(=O)c1c(C)cccc1F [INF024, (2R,3S)-2-(4-(cyclopentylamino)phenyl)-1-(2-fluoro-6-methylbenzoyl)-6-methoxy-N-(4-methyl-3-(trifluoromethyl)phenyl)-1,2,3,4-tetrahydroquinoline-3-carboxamide]",< 10
5,"Cc1cccc(F)c1C(=O)N1c2ccccc2C[C@H](C(=O)Nc2ccc(CO)c(C(F)(F)F)c2)[C@@H]1c1ccc(NC2CCCC2)cc1 [INF015, (2R,3S)-2-(4-(cyclopentylamino)phenyl)-1-(2-fluoro-6-methylbenzoyl)-N-(4-(hydroxymethyl)-3-(trifluoromethyl)phenyl)-1,2,3,4-tetrahydroquinoline-3-carboxamide]",< 10
6,"Cc1ccc(NC(=O)[C@H]2C[C@@H](C(F)(F)F)CN(C(=O)c3c(F)cccc3F)[C@H]2c2ccc(NC3CCCC3)cc2)cc1C(F)(F)F [INF052, (2R,3S,5R)-2-(4-(cyclopentylamino)phenyl)-1-(2,6-difluorobenzoyl)-N-(4-methyl-3-(trifluoromethyl)phenyl)-5-(trifluoromethyl)piperidine-3-carboxamide]",< 10
7,"Cc1ccc(NC(=O)[C@H]2Cc3ccccc3N(C(=O)c3c(C)cccc3F)[C@H]2c2ccc(NC3CCCC3)cc2)cc1C(F)(F)F [INF004, (2R,3S)-2-(4-(cyclopentylamino)phenyl)-1-(2-fluoro-6-methylbenzoyl)-N-(4-methyl-3-(trifluoromethyl)phenyl)-1,2,3,4-tetrahydroquinoline-3-carboxamide]",< 10
8,"[2H]C1(Nc2ccc([C@H]3[C@@H](C(=O)Nc4ccc(C)c(C(F)(F)F)c4)C[C@@H](C(F)(F)F)CN3C(=O)c3c(F)cccc3F)cc2)CCCC1 [INF067, (2R,3S,5R)-2-(4-((cyclopentyl-1-d)amino)phenyl)-1-(2,6-difluorobenzoyl)-N-(4-methyl-3-(trifluoromethyl)phenyl)-5-(trifluoromethyl)piperidine-3-carboxamide]",< 10
9,"O=C(Nc1ccc(O)c(C(F)(F)F)c1)[C@H]1C[C@@H](C(F)(F)F)CN(C(=O)c2c(F)cccc2F)[C@H]1c1ccc(NC2CCCC2)cc1 [INF068, (2R,3S,5R)-2-(4-(cyclopentylamino)phenyl)-1-(2,6-difluorobenzoyl)-N-(4-hydroxy-3-(trifluoromethyl)phenyl)-5-(trifluoromethyl)piperidine-3-carboxamide]",< 10
10,"Cc1ccc(NC(=O)[C@H]2Cc3cc(F)ccc3N(C(=O)c3c(C)cccc3F)[C@H]2c2ccc(NC3CCCC3)cc2)cc1C(F)(F)F [INF022, (2R,3S)-2-(4-(cyclopentylamino)phenyl)-6-fluoro-1-(2-fluoro-6-methylbenzoyl)-N-(4-methyl-3-(trifluoromethyl)phenyl)-1,2,3,4-tetrahydroquinoline-3-carboxamide]",< 10
11,"Cc1cccc(F)c1C(=O)N1c2ccc(F)cc2C[C@H](C(=O)Nc2ccc(CO)c(C(F)(F)F)c2)[C@@H]1c1ccc(NC2CCCC2)cc1 [INF039, (2R,3S)-2-(4-(cyclopentylamino)phenyl)-6-fluoro-1-(2-fluoro-6-methylbenzoyl)-N-(4-(hydroxymethyl)-3-(trifluoromethyl)phenyl)-1,2,3,4-tetrahydroquinoline-3-carboxamide]",< 10
12,"Cc1ccc(NC(=O)[C@H]2C[C@@H](C(F)(F)F)CN(C(=O)c3c(F)cccc3F)[C@H]2c2ccc(NC3CCCC3)cc2)cc1Cl [INF071, (2R,3S,5R)—N-(3-chloro-4-methylphenyl)-2-(4-(cyclopentylamino)phenyl)-1-(2,6-difluorobenzoyl)-5-(trifluoromethyl)piperidine-3-carboxamide]",< 10
